According to patent US11479539B2, “Small molecule modulators of the BTB domain of Keap1” (MedImmune Limited, priority 2017, dated 2022):

These compounds were tested against Keap1 (Homo sapiens (Human), UniProt Q14145) (assay: HEK293 ARE luciferase assay). Conditions: HEK-293 ARE firefly luciferase transiently transfected cells; 18 h incubation; mean of 1 to 20 individual measurements.
Format: cell-based
Description: The purpose of this assay is to identify small molecule inhibitors of Keap1, preventing Keap1 binding to Nrf2, and thus activating the Nrf2 signalling pathway in HEK-293 ARE firefly luciferase transiently transfected cells. HEK-293 cells express wild-type Keap1 protein and therefore have low constitutive levels of Nrf2 protein and Nrf2-dependent transcription. […] When Keap1 is inhibited, Nrf2 signalling is activated, and there is an increase in luciferase expression and light emission.
Cryopreserved HEK ARE luciferase cells were rapidly thawed in a 37° C. water bath and resuspended in assay culture medium (DMEM, 10% FCS, 2 mM L-glutamine). The cell suspension was pelleted by centrifugation ([…]; 300 g) using a Heraeus benchtop centrifuge. Supernatant was removed and the pellet was gently resuspended in 5 mL culture medium per vial. Cell viability and cell number was measured using an Invitrogen Countess automated cell counter (typical viability 80%), and cells were diluted to a density of 5.0×10^5 cells/mL.
Cells were then plated out into white 384-well plates (Greiner 781080) using a Multidrop Combi, 20 μL/well, to give 10,000 cells/well. As appropriate, test compounds had been added to wells prior to dispensing cells using an Echo 555 acoustic dispenser (Labcyte). Plates were left at room temperature for ˜10 min to promote even cell settling across the plate before incubation for 18 h at 37° C., 95% humidity and 5% CO2.
After 18 h incubation, plates were removed from the incubator and allowed to cool to room temperature for 30 min, before 10 μL per well SteadyGlo reagent detection reagent was added (as per manufacturer's instructions, 10 min before required 10 mL room temperature buffer was added to one vial of lyophilised substrate and inverted several times to fully dissolve). Plates were then incubated in the dark for 30 min before reading on an Envision plate reader.
Compounds were acoustically dispensed using a Labcyte Echo, using a 10 pt dose curve with a top concentration of 100 μM. Assay wells were backfilled with DMSO to a total of 60 nL to maintain 0.3% (v/v) DMSO through the assay.
The Stimulator signal was defined using 30 μM tert-butyl hydroquinone (tBHQ) and the Neutral signal by DMSO vehicle control. All calculations were performed using GeneData.
In IBIS Column Calculations, Assay Type was set to ‘Stimulator’, and the Activity Threshold was set to 50.
The mean values were calculated from anywhere from 1 to 20 individual measurements.

Sequence of Keap1 (Q14145 whole entry): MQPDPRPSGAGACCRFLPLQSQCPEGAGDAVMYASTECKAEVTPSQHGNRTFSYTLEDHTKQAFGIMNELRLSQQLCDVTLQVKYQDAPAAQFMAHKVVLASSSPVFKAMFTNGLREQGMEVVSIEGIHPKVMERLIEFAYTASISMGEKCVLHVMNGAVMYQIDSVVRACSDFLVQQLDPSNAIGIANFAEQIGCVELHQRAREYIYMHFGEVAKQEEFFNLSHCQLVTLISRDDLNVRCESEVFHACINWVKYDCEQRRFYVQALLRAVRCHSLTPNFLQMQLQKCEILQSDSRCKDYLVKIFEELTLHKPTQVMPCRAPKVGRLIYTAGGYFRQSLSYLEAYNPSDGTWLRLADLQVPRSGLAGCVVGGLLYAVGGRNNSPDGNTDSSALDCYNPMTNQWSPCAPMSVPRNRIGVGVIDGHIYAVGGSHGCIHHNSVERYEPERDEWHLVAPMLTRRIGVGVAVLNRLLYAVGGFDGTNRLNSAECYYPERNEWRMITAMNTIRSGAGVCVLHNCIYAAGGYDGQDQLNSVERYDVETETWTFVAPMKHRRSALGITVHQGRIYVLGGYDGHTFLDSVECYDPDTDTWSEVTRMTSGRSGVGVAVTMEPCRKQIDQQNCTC

Compound	EC50 [µM]
COC1(c2ncc(Cl)cc2C(F)(F)F)C=C(C#N)C(=O)C(C)(C)C1 (single isomer, unassigned) [Compound 208, 3-[5-chloro-3-(trifluoromethyl)pyridin-2-yl]-3-methoxy-5,5-dimethyl-6-oxocyclohex-1-ene-1-carbonitrile]	0.231
COC1(c2cccnc2-c2cnn(C)c2)C=C(C#N)C(=O)C(C)(C)C1 (centres unmarked) [Compound 25, 3-methoxy-5,5-dimethyl-3-[2-(1-methylpyrazol-4-yl)-3-pyridyl]-6-oxo-cyclohexene-1-carbonitrile]	0.07
COC1(c2ncc(F)cc2OC(F)F)C=C(C#N)C(=O)C(C)(C)C1 (single isomer, unassigned) [Compound 47, 3-(3-(difluoromethoxy)-5-fluoropyridin-2-yl)-3-methoxy-5,5-dimethyl-6-oxocyclohex-1-enecarbonitrile]	0.008
COC1(c2ncc(F)cc2F)C=C(C#N)C(=O)C(C)(C)C1 (centres unmarked) [Compound 28, 3-(3,5-difluoropyridin-2-yl)-3-methoxy-5,5-dimethyl-6-oxocyclohex-1-enecarbonitrile]	0.036
CCCc1cccnc1C1(OC)C=C(C#N)C(=O)C(C)(C)C1 (single isomer, unassigned) [Compound 101, 3-methoxy-5,5-dimethyl-6-oxo-3-(3-propylpyridin-2-yl)cyclohex-1-ene-1-carbonitrile]	0.033
CCOC1(c2ccc(F)cn2)C=C(C#N)C(=O)C(C)(C)C1 (single isomer, unassigned) [Compound 37, 3-ethoxy-3-(5-fluoropyridin-2-yl)-5,5-dimethyl-6-oxocyclohex-1-enecarbonitrile]	0.086
COC1(c2ncccc2C(F)(F)F)C=C(C#N)C(=O)C(C)(C)C1 (single isomer, unassigned) [Compound 15, 3-methoxy-5,5-dimethyl-6-oxo-3-(3-(trifluoromethyl)pyridin-2-yl)cyclohex-1-enecarbonitrile]	0.024
COC1(c2ncc(F)cc2-c2cnc(C)s2)C=C(C#N)C(=O)C(C)(C)C1 (centres unmarked) [Compound 168, 3-[5-fluoro-3-(2-methyl-1,3-thiazol-5-yl)pyridin-2-yl]-3-methoxy-5,5-dimethyl-6-oxocyclohex-1-ene-1-carbonitrile]	0.012
COC1(c2cccc(-c3cncnc3)n2)C=C(C#N)C(=O)C2(CC2)C1 (centres unmarked) [Compound 127, 7-methoxy-4-oxo-7-[6-(pyrimidin-5-yl)pyridin-2-yl]spiro[2.5]oct-5-ene-5-carbonitrile]	0.267
COC1(c2ncccc2Br)C=C(C#N)C(=O)C(C)(C)C1 (centres unmarked) [Compound 22, 3-(3-bromo-2-pyridyl)-3-methoxy-5,5-dimethyl-6-oxo-cyclohexene-1-carbonitrile]	0.045
COC1(c2ncc(F)cc2-c2ccc(=O)n(C)c2)C=C(C#N)C(=O)C(C)(C)C1 (centres unmarked) [Compound 167, 3-(5-fluoro-1′-methyl-6′-oxo[1′,6′-dihydro[3,3′-bipyridine]]-2-yl)-3-methoxy-5,5-dimethyl-6-oxocyclohex-1-ene-1-carbonitrile]	0.018
COC1(c2ccc(F)cn2)C=C(C#N)C(=O)C(C)(C)C1 (centres unmarked) [Compound 123, 3-(5-fluoropyridin-2-yl)-3-methoxy-5,5-dimethyl-6-oxocyclohex-1-ene-1-carbonitrile]	0.061
COC1(c2ccc(F)cn2)C=C(C#N)C(=O)C(C)(C)C1 (single isomer, unassigned) [Compound 27, 3-(5-fluoropyridin-2-yl)-3-methoxy-5,5-dimethyl-6-oxocyclohex-1-enecarbonitrile]	0.18
COC1(c2nc(C)cs2)C=C(C#N)C(=O)C2(CC2)C1 (single isomer, unassigned) [Compound 59, 7-methoxy-4-7-(4-methyl-1,3-thiazol-2-yl)-4-oxospiro[2.5]oct-5-ene-5-carbonitrile]	0.261
COC1(c2ncc(C)cn2)C=C(C#N)C(=O)C(C)(C)C1 (single isomer, unassigned) [Compound 204, 3-methoxy-5,5-dimethyl-3-(5-methylpyrimidin-2-yl)-6-oxocyclohex-1-ene-1-carbonitrile]	0.009
COC1(c2ncc(F)cc2-c2cc(C)nc(C)c2)C=C(C#N)C(=O)C(C)(C)C1 (single isomer, unassigned) [Compound 77, 3-[3-(2,6-dimethyl-4-pyridyl)-5-fluoro-2-pyridyl]-3-methoxy-5,5-dimethyl-6-oxo-cyclohexene-1-carbonitrile]	0.004

Compound	EC50 [µM]
COC1(c2ccc(C)nc2)C=C(C#N)C(=O)C(C)(C)C1 (centres unmarked) [Compound 16, 3-methoxy-5,5-dimethyl-3-(6-methyl-3-pyridyl)-6-oxo-cyclohexene-1-carbonitrile]	0.66
COC1(c2cncc(C)n2)C=C(C#N)C(=O)C(C)(C)C1 (centres unmarked) [Compound 30, 3-methoxy-5,5-dimethyl-3-(6-methylpyrazin-2-yl)-6-oxocyclohex-1-enecarbonitrile]	0.458
COC1(c2cccc(-c3ccnn3C)n2)C=C(C#N)C(=O)C(C)(C)C1 (centres unmarked) [Compound 106, 3-methoxy-5,5-dimethyl-3-(6-(1-methyl-1H-pyrazol-5-yl)pyridin-2-yl)-6-oxocyclohex-1-ene-1-carbonitrile]	0.12
COC1(c2nc(C(F)(F)F)cs2)C=C(C#N)C(=O)C(C)(C)C1 (single isomer, unassigned) [Compound 33, 3-methoxy-5,5-dimethyl-6-oxo-3-(4-(tri-fluoromethyl)thia-zol-2-yl)cyclohex-1-enecarbonitrile]	0.383
CO[C@]1(c2ncc(F)cc2-c2ccc(=O)n(C)c2)C=C(C#N)C(=O)C(C)(C)C1 [Compound 74, (S)-3-[5-fluoro-3-(1-methyl-6-oxo-3-pyridyl)-2-pyridyl]-3-methoxy-5,5-dimethyl-6-oxo-cyclohexene-1-carbonitrile]	0.015
COC1(c2ncccc2-c2ccccc2)C=C(C#N)C(=O)C(C)(C)C1 (centres unmarked) [Compound 7, 3-methoxy-5,5-dimethyl-6-oxo-3-(3-phenyl-2-pyridyl)cyclohexene-1-carbonitrile]	0.082
COC1(c2ncc(F)cc2-c2sc(C)nc2C)C=C(C#N)C(=O)C(C)(C)C1 (single isomer, unassigned) [Compound 93, 3-[3-(2,4-dimethylthiazol-5-yl)-5-fluoro-2-pyridyl]-3-methoxy-5,5-dimethyl-6-oxo-cyclohexene-1-carbonitrile]	0.005
COC1(c2cccc(-c3cncnc3)n2)C=C(C#N)C(=O)C2(CC2)C1 (single isomer, unassigned) [Compound 51, 7-methoxy-4-oxo-7-(6-(pyrimidin-5-yl)pyridin-2-yl)spiro[2.5]oct-5-ene-5-carbonitrile]	0.048
COC1(c2cccnc2Br)C=C(C#N)C(=O)C(C)(C)C1 (centres unmarked) [Compound 21, 3-(2-bromo-3-pyridyl)-3-methoxy-5,5-dimethyl-6-oxo-cyclohexene-1-carbonitrile]	0.452
CCCc1cccnc1C1(OC)C=C(C#N)C(=O)C(C)(C)C1 (centres unmarked) [Compound 169, 3-methoxy-5,5-dimethyl-6-oxo-3-(3-propylpyridin-2-yl)cyclohex-1-ene-1-carbonitrile]	0.173
COC1(c2ncc(F)cc2-c2cnc(C)nc2)C=C(C#N)C(=O)C(C)(C)C1 (single isomer, unassigned) [Compound 89, 3-[5-fluoro-3-(2-methylpyrimidin-5-yl)-2-pyridyl]-3-methoxy-5,5-dimethyl-6-oxo-cyclohexene-1-carbonitrile]	0.011
COC1(c2cccc(-c3cnn(C)c3)n2)C=C(C#N)C(=O)C(C)(C)C1 (centres unmarked) [Compound 111, 3-methoxy-5,5-dimethyl-3-[6-(1-methyl-1H-pyrazol-4-yl)pyridin-2-yl]-6-oxocyclohex-1-ene-1-carbonitrile]	0.065
COC1(c2nccc3ccccc23)C=C(C#N)C(=O)C(C)(C)C1 (centres unmarked) [Compound 4, 3-(1-isoquinolyl)-3-methoxy-5,5-dimethyl-6-oxo-cyclohexene-1-carbonitrile]	1.14
COC1(c2ccccn2)C=C(C#N)C(=O)C(C)(C)C1 (centres unmarked) [Compound 11, 3-methoxy-5,5-dimethyl-6-oxo-3-(2-pyridyl)cyclohexene-1-carbonitrile]	0.085
COC1(c2nc(C)c(-c3ccccn3)s2)C=C(C#N)C(=O)C2(CC2)C1 (centres unmarked) [Compound 194, 7-methoxy-7-[4-methyl-5-(pyridin-2-yl)-1,3-thiazol-2-yl]-4-oxospiro[2.5]oct-5-ene-5-carbonitrile]	0.203
COC1(c2ccc(C(F)(F)F)cn2)C=C(C#N)C(=O)C(C)(C)C1 (centres unmarked) [Compound 3, 3-methoxy-5,5-dimethyl-6-oxo-3-[5-(trifluoromethyl)-2-pyridyl]cyclohexene-1-carbonitrile]	0.424
